Patent publication US8349828B2, “Azatricyclic antibiotic compounds” (Actelion Pharmaceuticals Ltd., priority 2008, dated 2013)
Values after ≈ are worked out from the molar mass of the structure shown.

Each compound was assayed on M. catarrhalis A894 (assay: MIC determination by microdilution in cation-adjusted Mueller-Hinton Broth (CLSI M7-A7)). Conditions: Moraxella catarrhalis, A894, microdilution method.
Type: cell-based
Description: Minimal inhibitory concentrations (MICs, in mg/l) were determined in cation-adjusted Mueller-Hinton Broth by a microdilution method following the description given in “Methods for Dilution Antimicrobial Susceptibility Tests for Bacteria that Grow Aerobically”, Approved standard, 7th ed., Clinical and Laboratory Standards Institute (CLSI) Document M7-A7, Wayne, Pa., USA, 2006. All Example compounds were tested against several Gram-positive and Gram-negative bacteria.

MIC	Compound
≤ 0.063 µg/mL	O=C1CSc2ccc(N3C[C@H](CCNC[C@H]4Cc5c(F)ccc6ccc(=O)n4c56)OC3=O)cc2N1 [Example 20, (R)-9-fluoro-2-({2-[(S)-2-oxo-3-(3-oxo-3,4-dihydro-2H-benzo[1,4]thiazin-6-yl)-oxazolidin-5-yl]-ethylamino}-methyl)-1,2-dihydropyrrolo[3,2,1-ij]quinolin-4-one]
≤ 0.063 µg/mL	O=C1CSc2ccc(N3C[C@H](CCNC[C@@H]4Cc5cccc6ncc(=O)n4c56)OC3=O)cc2N1 [Example 29, (S)-5-({2-[(S)-2-oxo-3-(3-oxo-3,4-dihydro-2H-benzo[1,4]thiazin-6-yl)-oxazolidin-5-yl]-ethylamino}-methyl)-5,6-dihydro-pyrrolo[1,2,3-de]quinoxalin-3-one]
0.125 µg/mL (≈ 0.27 µM)	O=C1CSc2ccc(N3C[C@@H](CNC[C@@H]4Cc5cccc6ncc(=O)n4c56)OC3=O)cc2N1 [Example 30, (S)-5-({[(R)-2-oxo-3-(3-oxo-3,4-dihydro-2H-benzo[1,4]thiazin-6-yl)oxazolidin-5-ylmethyl]-amino}-methyl)-5,6-dihydro-pyrrolo[1,2,3-de]quinoxalin-3-one]
